Data reported in patent US12011444B2, “N-substituted indole derivatives as PGE2 receptor modulators” (Idorsia Pharmaceuticals Ltd, priority 2015, dated 2024).

Key:
[1] = target: PTGER2 (EP2) (Homo sapiens (Human), UniProt P43116); experiment: hEP2 b-arrestin assay (PathHunter HEK 293 PTGER2 b-arrestin cells); assay type: cell-based
In short: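 Readout is β-galactosidase complementation luminescence, expressed as percent of DMSO control (duplicates). PathHunter HEK293 EP2/β-arrestin 2 cells, grown 24 h, received compound for 15 min at 37 °C before a 120 min challenge with PGE2 at 5 μM final, followed by 1 h detection at room temperature.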

[2] = target: PTRGER4 (EP4) (Homo sapiens (Human), UniProt P35408); experiment: hEP4 b-arrestin assay (PathHunter HEK 293 PTGER4 b-arrestin cells); assay type: cell-based
In short: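 Antagonist mode: compound is given 15 min at 37 °C, then 20 nM (final) PGE2 for 120 min, in HEK293 cells stably expressing EP4 fused to ProLink and β-arrestin 2 fused to EA. Recruitment read as β-gal luminescence after 1 h reagent at room temperature, as percent of DMSO control.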

[3] = hEP2 b-arrestin assay (values without asterisk)
[4] = hEP4 b-arrestin assay (values without asterisk)
[5] = antagonistic activity on hEP2, mean where measured multiple times
[6] = antagonistic activity on hEP4, mean where measured multiple times

Sequence of PTRGER4 (EP4) (P35408 whole entry, looked up, the tested form may be a part): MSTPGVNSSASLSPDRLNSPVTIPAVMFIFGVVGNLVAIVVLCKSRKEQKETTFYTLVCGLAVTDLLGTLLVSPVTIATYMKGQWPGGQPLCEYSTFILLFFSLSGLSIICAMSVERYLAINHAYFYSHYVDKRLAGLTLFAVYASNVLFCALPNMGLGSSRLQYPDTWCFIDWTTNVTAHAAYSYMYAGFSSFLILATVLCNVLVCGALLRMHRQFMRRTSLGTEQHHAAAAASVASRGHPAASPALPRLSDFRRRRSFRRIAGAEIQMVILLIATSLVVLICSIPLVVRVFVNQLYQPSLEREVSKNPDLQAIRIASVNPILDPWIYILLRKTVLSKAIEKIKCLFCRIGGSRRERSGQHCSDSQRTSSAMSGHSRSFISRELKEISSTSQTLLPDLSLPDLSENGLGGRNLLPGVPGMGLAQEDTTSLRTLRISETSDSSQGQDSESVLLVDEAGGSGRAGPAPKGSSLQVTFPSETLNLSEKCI
Sequence of PTGER2 (EP2) (P43116 whole entry): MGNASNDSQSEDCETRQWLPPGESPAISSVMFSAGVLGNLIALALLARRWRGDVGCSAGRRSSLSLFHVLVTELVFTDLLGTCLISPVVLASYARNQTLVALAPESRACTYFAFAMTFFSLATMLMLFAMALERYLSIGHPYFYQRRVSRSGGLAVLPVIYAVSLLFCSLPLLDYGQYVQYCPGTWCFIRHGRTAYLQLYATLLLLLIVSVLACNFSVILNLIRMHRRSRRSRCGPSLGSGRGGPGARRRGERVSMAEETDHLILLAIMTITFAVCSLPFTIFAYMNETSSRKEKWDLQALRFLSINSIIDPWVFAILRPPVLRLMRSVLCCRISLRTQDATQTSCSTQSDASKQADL

SMILES	IC50 [1, 3]	IC50 [2, 4]	IC50 [1, 5]	IC50 [2, 6]
CCOc1cc(-c2cc(NCCn3c(C#N)cc4c(OC)ccc(F)c43)ncn2)ccc1NCC(=O)O [Example 861, (4-{6-[2-(2-Cyano-7-fluoro-4-methoxy-indol-1-yl)-ethylamino]-pyrimidin-4-yl}-2-ethoxy-phenylamino)-acetic acid]	5 nM	2 nM		
CCOc1cc(-c2cc(NCCn3c(C#N)cc4c(OC)cc(F)c(F)c43)ncn2)ccc1OCC(=O)O [Example 944, (4-{6-[2-(2-Cyano-6,7-difluoro-4-methoxy-indol-1-yl)-ethylamino]-pyrimidin-4-yl}-2-ethoxy-phenoxy)-acetic acid]	16 nM	7 nM		
CCOc1cc(-c2cc(NCCn3c(C)cc4c(OC)ccc(F)c43)ncn2)sc1CC(=O)O [Example 847, (3-Ethoxy-5-{6-[2-(7-fluoro-4-methoxy-2-methyl-indol-1-yl)-ethylamino]-pyrimidin-4-yl}-thiophen-2-yl)-acetic acid]	35 nM	309 nM		
CCOc1cc(-c2cc(NCCn3c(C)cc4c(C)cc(F)c(F)c43)ncn2)sc1C(=O)O [compound 294]			8 nM	10 nM
COC(=O)N(C)c1ccc(-c2cc(NCCn3c(C#N)cc4c(OC)ccc(F)c43)ncn2)cc1 [Example 1056, (4-{6-[2-(2-Cyano-7-fluoro-4-methoxy-indol-1-yl)-ethylamino]-pyrimidin-4-yl}-phenyl)-methyl-carbamic acid methyl ester]	120 nM	119 nM		
CCOc1cc(-c2cc(NCCn3c(C)cc4c(OC)cc(F)cc43)ncn2)sc1C(=O)O [compound 257]			2 nM	6 nM
COCCOc1ccc(-c2cc(NCCn3c(C#N)cc4c(OC)ccc(F)c43)ncn2)cc1 [Example 963, 7-Fluoro-4-methoxy-1-(2-{6-[4-(2-methoxy-ethoxy)-phenyl]-pyrimidin-4-ylamino}-ethyl)-1H-indole-2-carbonitrile]	194 nM	126 nM		
COc1ccc(F)c2c1cc(C#N)n2CCNc1cc(-c2cc(OC(C)C)c(C(=O)O)s2)ncn1 [Example 802, 5-{6-[2-(2-Cyano-7-fluoro-4-methoxy-indol-1-yl)-ethylamino]-pyrimidin-4-yl}-3-isopropoxy-thiophene-2-carboxylic acid]	7 nM	1 nM		
CCOC(=O)OCOC(=O)c1sc(-c2cc(NCCn3c(C#N)cc4c(OC)ccc(F)c43)ncn2)cc1OCC [Example 1046, 5-{6-[2-(2-Cyano-7-fluoro-4-methoxy-indol-1-yl)-ethylamino]-pyrimidin-4-yl}-3-ethoxy-thiophene-2-carboxylic acid ethoxycarbonyloxymethyl ester]	27 nM	5 nM		
CCN1Cc2cc(-c3cc(NCCn4c(C)cc5c(OC)ccc(F)c54)ncn3)ccc2C1=O [compound 320]			68 nM	345 nM
Cc1nnc(-c2ccc(-c3cc(NCCn4c(C)cc5c(C)ccc(F)c54)ncn3)cc2F)o1 [compound 306]			408 nM	207 nM
COc1ccc(F)c2c1cc(C#N)n2CCNc1cc(-c2cccc(CCC(=O)O)c2)ncn1 [Example 1011, 3-(3-{6-[2-(2-Cyano-7-fluoro-4-methoxy-indol-1-yl)-ethylamino]-pyrimidin-4-yl}-phenyl)-propionic acid]	120 nM	228 nM		
CCNc1cc(-c2cc(NCCn3c(C)cc4c(C)ccc(F)c43)ncn2)cc(Cl)c1C(=O)O [compound 353, 2-Chloro-6-ethylamino-4-{6-[2-(7-fluoro-2,4-dimethyl-indol-1-yl)-ethylamino]-pyrimidin-4-yl}-benzoic acid]			13 nM	213 nM
CCCc1cc(-c2cc(NCCn3c(C)cc4c(F)ccc(F)c43)ncn2)ccc1C(=O)O [compound 144, 4-{6-[2-(4,7-Difluoro-2-methyl-indol-1-yl)-ethylamino]-pyrimidin-4-yl}-2-propyl-benzoic acid]			3 nM	658 nM
CCOc1cc(-c2cc(NCCn3c(C#N)cc4c(OC)ccc(F)c43)ncn2)sc1C(=O)NCCOC [Example 1028, 5-{6-[2-(2-Cyano-7-fluoro-4-methoxy-indol-1-yl)-ethylamino]-pyrimidin-4-yl}-3-ethoxy-thiophene-2-carboxylic acid (2-methoxy-ethyl)-amide]	9 nM	2 nM		
CCCc1cc(-c2cc(NCCn3c(C)cc4c(F)ccc(Cl)c43)ncn2)cc(F)c1C(=O)O [compound 340, 4-{6-[2-(7-Chloro-4-fluoro-2-methyl-indol-1-yl)-ethylamino]-pyrimidin-4-yl}-2-fluoro-6-propyl-benzoic acid]			5 nM	645 nM
CCN1Cc2cc(-c3cc(NCCn4c(C)cc5c(OC)cccc54)ncn3)ccc2C1=O [compound 197, 2-Ethyl-5-{6-[2-(4-methoxy-2-methyl-indol-1-yl)-ethylamino]-pyrimidin-4-yl}-2,3-dihydro-isoindol-1-one]			32 nM	751 nM
CCN(C=O)c1csc(-c2cc(NCCn3c(C)cc4c(OC)ccc(F)c43)ncn2)c1 [Example 1071, N-Ethyl-N-(5-{6-[2-(7-fluoro-4-methoxy-2-methyl-indol-1-yl)-ethylamino]-pyrimidin-4-yl}-thiophen-3-yl)-formamide]	23 nM	40 nM		

SMILES	IC50 [1, 3]	IC50 [2, 4]	IC50 [1, 5]	IC50 [2, 6]
COC(=O)c1ccc2cc(-c3cc(NCCn4c(C#N)cc5c(OC)ccc(F)c54)ncn3)[nH]c2c1 [Example 959, 2-{6-[2-(2-Cyano-7-fluoro-4-methoxy-indol-1-yl)-ethylamino]-pyrimidin-4-yl}-1H-indole-6-carboxylic acid methyl ester]	3 nM	137 nM		
CSc1cc(-c2cc(NCCn3c(C)cc4c(C)c(F)cc(Cl)c43)ncn2)cc(F)c1C(=O)O [compound 330]			102 nM	667 nM
Cc1ccc(F)c2c1cc(C)n2CCNc1cc(-c2ccc(CO)c(Cl)c2)ncn1 [compound 20]			94 nM	328 nM
COc1ccc(F)c2c1cc(C#N)n2CCNc1cc(-c2ccc(O)c(OC(F)(F)F)c2)ncn1 [Example 866, 7-Fluoro-1-{2-[6-(4-hydroxy-3-trifluoromethoxy-phenyl)-pyrimidin-4-ylamino]-ethyl}-4-methoxy-1H-indole-2-carbonitrile]	8 nM	5 nM		
CCOc1cc(-c2cc(NCCn3c(C)cc4c(OC)cccc43)ncn2)sc1C(=O)O [compound 216]			2 nM	22 nM
COc1ccc(F)c2c1cc(C)n2CCNc1cc(-c2ccc(-c3csc(O)n3)cc2)ncn1 [Example 798, 4-(4-{6-[2-(7-Fluoro-4-methoxy-2-methyl-indol-1-yl)-ethylamino]-pyrimidin-4-yl}-phenyl)-thiazol-2-ol]	28 nM	123 nM		
CCOc1cc(-c2cc(NCCn3c(C)cc4cc(C)cc(Cl)c43)ncn2)ccc1C(=O)O [compound 284]			34 nM	824 nM
CCc1cc(-c2cc(NCCn3c(C)cc4cc(C)cc(F)c43)ncn2)sc1C(=O)O [compound 241]			32 nM	128 nM
COc1cccc2c1cc(C)n2CCNc1cc(-c2ccc3[nH]cnc3c2)ncn1 [compound 8, [6-(1H-Benzoimidazol-5-yl)-pyrimidin-4-yl]-[2-(4-methoxy-2-methyl-indol-1-yl)-ethyl]-amine]			9 nM	333 nM
COc1ccc(F)c2c1cc(C#N)n2CCNc1cc(-c2ccnc(C(F)(F)F)c2)ncn1 [Example 1007, 7-Fluoro-4-methoxy-1-{2-[6-(2-trifluoromethyl-pyridin-4-yl)-pyrimidin-4-ylamino]-ethyl}-1H-indole-2-carbonitrile]	24 nM	67 nM		
N#Cc1cc2c(Cl)cc(F)c(F)c2n1CCNc1cc(-c2cc(F)c(C(=O)O)s2)ncn1 [Example 904, 5-{6-[2-(4-Chloro-2-cyano-6,7-difluoro-indol-1-yl)-ethylamin0]-pyrimidin-4-yl}-3-fluoro-thiophene-2-carboxylic acid]	1 nM	49 nM		
COc1ccc(F)c2c1cc(C)n2CCNc1cc(-c2cc(OC(C)C)c(CCC(=O)O)s2)ncn1 [Example 1013, 3-(5-{6-[2-(7-Fluoro-4-methoxy-2-methyl-indol-1-yl)-ethylamino]-pyrimidin-4-yl}-3-isopropoxy-thiophen-2-yl)-propionic acid]	14 nM	17 nM		
COc1ccc(F)c2c1cc(C)n2CCNc1cc(-c2ccc3c(c2)CCN3)ncn1 [compound 67, [6-(2,3-Dihydro-1H-indol-5-yl)-pyrimidin-4-yl]-[2-(7-fluoro-4-methoxy-2-methyl-indol-1-yl)-ethyl]-amine]			10 nM	59 nM
COc1cc(F)cc2c1cc(C)n2CCNc1cc(-c2ccc(C(=O)O)c(C3CC3)c2)ncn1 [compound 382]			27 nM	359 nM
COc1ccc(F)c2c1cc(C)n2CCNc1cc(-c2ccc(O)c(OC(F)(F)F)c2)ncn1 [Example 874, 4-{6-[2-(7-Fluoro-4-methoxy-2-methyl-indol-1-yl)-ethylamino]-pyrimidin-4-yl}-2-trifluoromethoxy-phenol]	4 nM	19 nM		
Cc1cc(-c2cc(NCCn3c(C)cc4c(C)ccc(F)c43)ncn2)sc1C(=O)O [compound 45]			14 nM	75 nM
COc1ccc(F)c2c1cc(C#N)n2CCNc1cc(-c2ccc(C(O)CO)cc2)ncn1 (racemic) [Example 862, rac-1-(2-{6-[4-(1,2-Dihydroxy-ethyl)-phenyl]-pyrimidin-4-ylamino}-ethyl)-7-fluoro-4-methoxy-1H-indole-2-carbonitrile]	90 nM	194 nM		
